According to ChEMBL document CHEMBL4428125, “8-Substituted 1,3-dimethyltetrahydropyrazino[2,1-f]purinediones: Water-soluble adenosine receptor antagonists and monoamine oxidase B inhibitors” (Bioorg Med Chem, 2016):
Converted amounts (≈) assume the structure as drawn. The source made the active and inactive calls. The rule behind the calls is not given here.

What was measured:
[1] = biological target: T1, Amine oxidase [flavin-containing] B (Homo sapiens, UniProt P27338); assay: Inhibition of recombinant human MAO-B expressed in baculovirus infected BTI insect cells at 10 uM preincubated for 30 mins followed by addition of p-tyramine as substrate measured over 45 mins by Amplex Red MAO assay relative to control; conditions: 0.75 h
T1 sequence (P27338 whole entry): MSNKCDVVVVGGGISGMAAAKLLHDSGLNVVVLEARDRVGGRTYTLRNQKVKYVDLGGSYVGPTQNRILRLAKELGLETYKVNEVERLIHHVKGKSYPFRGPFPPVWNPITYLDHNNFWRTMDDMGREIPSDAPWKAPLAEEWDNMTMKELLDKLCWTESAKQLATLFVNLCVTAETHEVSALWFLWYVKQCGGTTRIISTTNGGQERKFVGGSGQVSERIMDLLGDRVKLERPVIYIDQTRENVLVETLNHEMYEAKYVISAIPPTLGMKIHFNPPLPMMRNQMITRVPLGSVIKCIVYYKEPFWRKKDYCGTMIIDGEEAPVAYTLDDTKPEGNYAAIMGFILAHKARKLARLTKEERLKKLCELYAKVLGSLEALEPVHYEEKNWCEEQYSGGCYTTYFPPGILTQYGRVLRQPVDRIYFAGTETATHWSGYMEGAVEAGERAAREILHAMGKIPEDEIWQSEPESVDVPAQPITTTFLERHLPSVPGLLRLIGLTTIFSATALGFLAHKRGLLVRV

[2] = biological target: T2, Adenosine receptor A2b (Homo sapiens) (UniProt P29275); assay: Displacement of [3H]PSB-603 from human A2B receptor expressed in CHO cell membrane at […] relative to control; format: cell membranes
T2 sequence (whole entry): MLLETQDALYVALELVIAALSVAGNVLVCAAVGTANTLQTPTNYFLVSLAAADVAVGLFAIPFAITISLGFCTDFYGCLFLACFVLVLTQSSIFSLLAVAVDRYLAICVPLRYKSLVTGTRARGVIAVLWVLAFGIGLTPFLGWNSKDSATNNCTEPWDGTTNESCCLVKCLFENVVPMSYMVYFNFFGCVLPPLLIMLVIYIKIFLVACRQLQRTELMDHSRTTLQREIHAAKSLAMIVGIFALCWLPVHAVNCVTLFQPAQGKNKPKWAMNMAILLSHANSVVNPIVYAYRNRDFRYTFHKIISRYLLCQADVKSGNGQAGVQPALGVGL

[3] = biological target: T3, Adenosine receptor A1 (Rattus norvegicus, UniProt P25099); assay: Displacement of [3H]CCPA from A1 receptor in rat brain cortex membranes by liquid scintillation counting method; format: cell membranes
T3 sequence (P25099 whole entry): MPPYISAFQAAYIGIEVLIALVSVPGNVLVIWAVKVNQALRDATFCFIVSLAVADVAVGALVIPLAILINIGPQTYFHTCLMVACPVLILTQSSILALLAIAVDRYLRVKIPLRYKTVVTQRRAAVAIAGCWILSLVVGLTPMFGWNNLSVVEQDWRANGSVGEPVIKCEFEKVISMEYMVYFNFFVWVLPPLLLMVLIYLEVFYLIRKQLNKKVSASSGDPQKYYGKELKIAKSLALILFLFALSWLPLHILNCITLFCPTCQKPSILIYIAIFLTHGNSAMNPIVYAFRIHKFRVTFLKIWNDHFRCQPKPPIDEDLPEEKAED

[4] = biological target: Adenosine receptor A2a (Rattus norvegicus, UniProt P30543); assay: Displacement of [3H]MSX from A2A receptor in rat brain striatum membranes measured after 30 mins by liquid scintillation counting method; format: cell membranes
Chain of Adenosine receptor A2a (Rattus norvegicus, UniProt P30543) (P30543 whole entry): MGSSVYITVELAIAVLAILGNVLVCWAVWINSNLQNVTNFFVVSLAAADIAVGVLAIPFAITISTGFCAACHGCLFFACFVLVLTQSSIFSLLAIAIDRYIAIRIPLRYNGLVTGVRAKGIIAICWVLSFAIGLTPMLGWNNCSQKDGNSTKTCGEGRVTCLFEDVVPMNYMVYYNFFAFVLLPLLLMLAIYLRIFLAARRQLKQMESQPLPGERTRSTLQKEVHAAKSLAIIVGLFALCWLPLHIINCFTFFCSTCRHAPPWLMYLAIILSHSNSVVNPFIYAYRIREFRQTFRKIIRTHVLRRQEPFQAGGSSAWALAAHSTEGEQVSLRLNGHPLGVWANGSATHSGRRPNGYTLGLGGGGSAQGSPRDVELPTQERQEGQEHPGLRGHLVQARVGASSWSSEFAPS

[5] = biological target: Adenosine receptor A2a (Rattus norvegicus) (UniProt P30543); assay: Displacement of [3H]MSX from A2A receptor in rat brain striatum membranes at 1 uM measured after 30 mins by liquid scintillation counting method relative to control; format: cell membranes
Chain of Adenosine receptor A2a (Rattus norvegicus) (P30543 whole entry): as above

[6] = biological target: T4, Adenosine receptor A1 (Rattus norvegicus) (UniProt P25099); assay: Displacement of [3H]CCPA from A1 receptor in rat brain cortex membranes at 1.5 uM by liquid scintillation counting method; format: cell membranes
T4 sequence (whole entry): T3 sequence (P25099 whole entry)

[7] = biological target: T5, Adenosine receptor A3 (Homo sapiens, UniProt P0DMS8); assay: Displacement of [3H]PSB-11 from human A3 receptor expressed in CHO cell membrane by liquid scintillation counting method relative to control; format: cell membranes
T5 sequence (P0DMS8 whole entry): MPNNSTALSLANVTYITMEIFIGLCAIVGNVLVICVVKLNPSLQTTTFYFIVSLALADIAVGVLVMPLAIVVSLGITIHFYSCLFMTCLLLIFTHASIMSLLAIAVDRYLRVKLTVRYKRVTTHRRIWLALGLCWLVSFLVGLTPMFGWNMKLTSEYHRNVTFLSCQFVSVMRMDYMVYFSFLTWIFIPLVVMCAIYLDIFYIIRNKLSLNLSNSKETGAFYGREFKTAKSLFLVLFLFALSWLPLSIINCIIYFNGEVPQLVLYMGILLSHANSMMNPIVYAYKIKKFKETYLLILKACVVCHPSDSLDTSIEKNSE

[8] = biological target: T1, Amine oxidase [flavin-containing] B; assay: Inhibition of recombinant human MAO-B expressed in baculovirus infected BTI insect cells preincubated for 30 mins followed by addition of p-tyramine as substrate measured over 45 mins by Amplex Red MAO assay
[9] = biological target: T3, Adenosine receptor A1; assay: Displacement of [3H]CCPA from rat A1 receptor by liquid scintillation counting method
[10] = biological target: T6, Adenosine receptor A2a (Homo sapiens, UniProt P29274); assay: Displacement of [3H]MSX from human A2A receptor by liquid scintillation counting method
T6 sequence (P29274 whole entry): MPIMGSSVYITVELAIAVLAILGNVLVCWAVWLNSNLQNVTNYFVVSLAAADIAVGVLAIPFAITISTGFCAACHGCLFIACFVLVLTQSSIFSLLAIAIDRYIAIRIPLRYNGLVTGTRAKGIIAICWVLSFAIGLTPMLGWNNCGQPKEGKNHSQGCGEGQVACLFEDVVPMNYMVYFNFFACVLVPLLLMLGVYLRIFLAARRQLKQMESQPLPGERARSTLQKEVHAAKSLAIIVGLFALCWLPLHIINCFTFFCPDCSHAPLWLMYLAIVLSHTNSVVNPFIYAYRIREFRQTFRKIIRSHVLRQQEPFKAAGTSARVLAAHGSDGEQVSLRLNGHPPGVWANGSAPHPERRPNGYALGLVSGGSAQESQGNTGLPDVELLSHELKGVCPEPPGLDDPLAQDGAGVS

[11] = biological target: T3, Adenosine receptor A1; assay: Displacement of [3H]MSX from rat A1 receptor measured after 75 mins by liquid scintillation counting method
[12] = biological target: T2, Adenosine receptor A2b (Homo sapiens); assay: Displacement of [3H]PSB-603 from human A2B receptor expressed in CHO cell membrane measured after 75 mins by liquid scintillation counting method relative to control; format: cell membranes
[13] = biological target: T7, Adenosine receptor A3 (Homo sapiens) (UniProt P0DMS8); assay: Displacement of [3H]PSB-11 from human A3 receptor expressed in CHO cell membrane at 10 uM by liquid scintillation counting method relative to control relative to control; format: cell membranes
T7 sequence (whole entry): T5 sequence (P0DMS8 whole entry)

[14] = biological target: T8, Adenosine receptor A2b (Homo sapiens, UniProt P29275); assay: Displacement of [3H]PSB-603 from human A2B receptor expressed in CHO cell membrane measured after 75 mins by liquid scintillation counting method; format: cell membranes
T8 sequence (P29275 whole entry): T2 sequence (whole entry)

[15] = biological target: T9, Adenosine receptor A1 (Homo sapiens, UniProt P30542); assay: Displacement of [3H]CCPA from human A1 receptor expressed in CHO cell membrane by liquid scintillation counting method; format: cell membranes
T9 sequence (P30542 whole entry): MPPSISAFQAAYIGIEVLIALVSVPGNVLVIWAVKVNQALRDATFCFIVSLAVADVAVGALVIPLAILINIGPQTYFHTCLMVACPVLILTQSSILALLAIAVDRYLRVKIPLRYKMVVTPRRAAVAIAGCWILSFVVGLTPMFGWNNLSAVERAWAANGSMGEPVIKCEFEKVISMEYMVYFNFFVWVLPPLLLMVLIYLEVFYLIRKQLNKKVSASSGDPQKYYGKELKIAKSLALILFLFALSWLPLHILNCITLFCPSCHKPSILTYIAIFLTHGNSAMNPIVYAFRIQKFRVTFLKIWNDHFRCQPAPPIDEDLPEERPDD

[16] = Thermodynamic solubility of the compound at pH 7.4; format: physicochemical; conditions: buffer, read-out: Therm_solubility
[17] = biological target: T10, Adenosine receptor A1 (Homo sapiens) (UniProt P30542); assay: Agonist activity at recombinant human A1 receptor expressed in CHO cells assessed as inhibition of forskolin-induced cAMP accumulation at 10 uM preincubated for 20 mins prior to forskolin-stimulation measure after 5 mins by liquid scintillation counting method; format: functional, cell-based
T10 sequence (whole entry): T9 sequence (P30542 whole entry)

[18] = Thermodynamic solubility of the compound at pH 4; format: physicochemical; conditions: buffer, read-out: Therm_solubility
[19] = Thermodynamic solubility of the compound at pH 1; format: physicochemical; conditions: buffer, read-out: Therm_solubility
[20] = biological target: T6, Adenosine receptor A2a; assay: Displacement of [3H]MSX from human A2A receptor measured after 30 mins by liquid scintillation counting method
[21] = biological target: T6, Adenosine receptor A2a; assay: Agonist activity at recombinant human A2A receptor expressed in CHO cells assessed as increase in forskolin-induced cAMP level at 10 uM preincubated for 20 mins prior to forskolin-stimulation measure after 5 mins by liquid scintillation counting method; format: functional, cell-based
[22] = biological target: T2, Adenosine receptor A2b (Homo sapiens); assay: Displacement of [3H]PSB-603 from human A2B receptor expressed in CHO cell membrane at 1 uM relative to control; format: cell membranes
[23] = biological target: T6, Adenosine receptor A2a; assay: Agonist activity at recombinant human A2A receptor expressed in CHO cells assessed as increase in forskolin-induced cAMP level at 1 uM preincubated for 20 mins prior to forskolin-stimulation measure after 5 mins by liquid scintillation counting method; format: functional, cell-based
[24] = biological target: T8, Adenosine receptor A2b; assay: Displacement of [3H]PSB-603 from human A2B receptor expressed in CHO cell membrane; format: cell membranes
[25] = biological target: T10, Adenosine receptor A1 (Homo sapiens); assay: Agonist activity at recombinant human A1 receptor expressed in CHO cells assessed as inhibition of forskolin-induced cAMP accumulation at 1 uM preincubated for 20 mins prior to forskolin-stimulation measure after 5 mins by liquid scintillation counting method; format: functional, cell-based

SMILES: Cn1c(=O)c2c(nc3n2CCN(Cc2nocc2-c2ccccc2)C3)n(C)c1=O
- inhibition at 10 µM [1]: 39%
- inhibition [2]: 18%
- Ki [3]: > 1.5 µM
- Ki [4]: > 1 µM
- Activity [5]: 5%
- Activity [6]: 21%
- Ki [7]: 8.72 µM
- IC50 [8]: > 10 µM

SMILES: Cn1c(=O)c2c(nc3n2CCN(Cc2ccccc2)C3)n(C)c1=O
- inhibition at 10 µM [1]: 36%
- Ki [9]: 0.0793 µM
- Ki [10]: 1.06 µM
- Ki [11]: 0.598 µM
- Activity [12]: 15%
- Activity [13]: 21%
- Ki [14]: > 1 µM
- Ki [15]: 0.265 µM
- Ki [7]: > 10 µM
- IC50 [8]: > 10 µM

SMILES: Cn1c(=O)c2c(nc3n2CCN(Cc2csc(-c4ccc(C(F)(F)F)cc4)n2)C3)n(C)c1=O
- inhibition at 10 µM [1]: 54%
- solubility thermodynamic [16]: < 0.5 µg/mL
- Activity [17]: inactive
- solubility thermodynamic [18]: < 0.5 µg/mL
- solubility thermodynamic [19]: 200 µg/mL (≈ 420 µM)
- Ki [20]: 0.217 µM
- Activity [21]: inactive
- Ki [3]: 0.157 µM
- Activity [22]: 25%
- Activity [23]: inactive
- Ki [4]: 0.355 µM
- Ki [24]: > 1 µM
- Ki [15]: 0.236 µM
- Ki [7]: 7.49 µM
- Activity [25]: inactive
- IC50 [8]: 10 µM

SMILES: Cn1c(=O)c2c(nc3n2CCN(Cc2csc(-c4cccs4)n2)C3)n(C)c1=O
- inhibition at 10 µM [1]: 33%
- solubility thermodynamic [16]: 700 µg/mL (≈ 1690 µM)
- Activity [17]: inactive
- Ki [20]: 0.203 µM
- Activity [21]: inactive
- Ki [3]: 0.166 µM
- Activity [22]: 3%
- Activity [23]: inactive
- Ki [4]: 0.121 µM
- Activity [13]: 46%
- Ki [24]: > 1 µM
- Ki [15]: 0.642 µM
- Ki [7]: ≥ 10 µM
- Activity [25]: inactive
- IC50 [8]: > 10 µM
